Reference: US9598407B2, “Antibacterial piperidinyl substituted 3,4-dihydro-1H-[1,8]naphthyridinones” (JANSSEN SCIENCES IRELAND UC, priority 2011, dated 2017)
Values after ≈ are worked out from the molar mass of the structure shown.

Assays:
[1] = test system: Staphylococcus aureus ATCC 29213; assay: Antibacterial susceptibility testing, IC90 determination (STA 361.159); type: cell-based; conditions: STA ATCC 29213; 90% inhibitory concentration for bacterial growth
Experimental: D.2 In Vitro Method for Testing Compounds for Antibacterial Activity Against Various Bacterial Strains Preparation of Bacterial Suspensions for Susceptibility Testing
(§1) The following bacteria were used: Staphylococcus aureus ATCC 29213, methicillin-resistant Staphylococcus aureus (MRSA) ATCC 700788 and Escherichia coli ATCC 35218. The bacteria used in this study were grown overnight in flasks containing 100 ml Mueller-Hinton broth (Difco cat. nr. 0757-17) in sterile de-ionized water, with shaking, at 37° C. Stocks were store at −70° C. until use.
(§2) Bacteria were incubated on a tryptic soy agar plate containing 5% sheep blood (Becton Dickinson cat. nr. 254053) for 18-24 hours at 35° C. in aerobic conditions (first passage). For the second passage, fresh Mueller-Hinton broth is inoculated with 5-10 colonies and grown overnight at 35° C. until turbidity (reaching log-phase) in aerobic conditions is reached. The bacterial suspension is then adjusted to 0.5 McFarland density and further diluted 1:100 in Mueller Hinton broth medium. This is used as inoculum.
Antibacterial Susceptibility Testing: IC90 Determination
(§3) MIC assays were performed by the broth microdilution method in a 96-well format (flat-bottom microtitre plates) with a final volume of 0.1 ml Mueller Hinton broth containing two-fold serial dilutions of compounds and inoculated with 5×10^5 CFU/ml of bacteria (standard inoculum size according to CLSI guidelines). Inhibitors are typically varied over the range of 63 to 0.49 μM. The final DMSO concentration in the assay was 1.25% (maximum tolerable DMSO concentration=6%). In the assays where the effect of human serum on the activity of the compounds against S. aureus was tested, human serum was added at a final concentration of 10%. The plates were incubated at 35° C. for 16-20 hours. At the end of incubation the bacterial growth was quantified fluorometrically. For this, resazurin was added to all wells and the plates were re-incubated. The incubation time is dependent on the type of bacteria. A change in color from blue to pink indicated the growth of bacteria. The fluorescence was read in computer-controlled fluorometer (Fluoroskan Ascent FL, Labsystems) at an excitation wavelength 540 nm and an emission wavelength of 590 nm. The % growth inhibition achieved by the compounds was calculated according to standard methods. The IC90 (expressed in μg/ml) was defined as the 90% inhibitory concentration for bacterial growth. A panel of reference compounds were simultaneously tested for QC approval.

[2] = target: S. aureus ATCC 29213 FabI (Staphylococcus aureus (strain MRSA252), UniProt Q6GI75); assay: Staphylococcus aureus FabI enzyme inhibition assay; type: biochemical; conditions: 30 minutes at room temperature, pH 6.5
Experimental: D.1 FabI Enzyme Inhibition: Staphylococcus aureus FabI Enzyme Inhibition Assay
FabI enzyme inhibition assays were carried out in half-area, 384-well microtitre plates. Compounds were evaluated in 40-μl assay mixtures containing 100 mM NaADA, pH 6.5 (ADA=N-[2-acetamido]-2iminodiacetic acid), 250 μM crotonoyl-CoA, 625 μM NADH and 50 μg/ml S. aureus ATCC 29213 FabI Inhibitors were typically varied over the range of 50 to 0.39 μM. The reaction mixtures were incubated for 30 minutes at room temperature and the reaction was stopped by adding 200 mM Tris buffer (pH 9.0) to create a pH-shift. The consumption of NADH was monitored by measuring the change in absorbance at […]. By comparing sample readings to those of negative (absence of compound) and positive (absence of enzyme) controls, the percent inhibition of enzymatic activity of the compounds was determined A best-fit curve is fitted by a minimum of squares method. From this an IC50-value (expressed in μg/ml), resulting in 50% inhibition of enzymatic activity, was obtained.

[3] = test system: S. aureus; assay: Antibacterial susceptibility testing, IC90 with 10% human serum (STA + 10% HS 361.169); type: cell-based, Staphylococcus aureus; conditions: S. aureus with 10% human serum
Experimental: as §1, §2, §3
The results are depicted in the table D2 below (STA+10% HS).

[4] = test system: Human HelaM cells; assay: Cytotoxicity MTT assay (TOX HELAM 222.125); type: cell-based; conditions: 72 hours
Experimental: Cytotoxicity of the compounds was evaluated using the MTT assay. Human HelaM cells grown in 96-well plates were exposed to serial dilutions of the tested compounds (final volume of 0.2 ml) and incubated for 72 hours at 37° C. and 5% CO2 Inhibitors are typically varied over the range of 25 to 0.8 μM. The final DMSO concentration in the assay is 0.5%. MTT (3-(4,5-Dimethylthiazol-2-yl)-2,5-diphenyltetrazolium bromide, a tetrazole) was added and reduced to purple formazan only in living cells. Solubilization of the formazan crystals was achieved by adding 100 μl 2-propanol. Cell viability was determined by measuring the absorbance of the reduced formazan, giving a purple color, at 540 nm and 690 nm. The absorbance measured at 690 nm was automatically subtracted from the absorbance at 540 nm, to eliminate the effects of non-specific absorption. The percent cytotoxicity achieved by the compounds was calculated according to standard methods. Cytotoxicity is reported as CC50, the concentration that causes a 50% reduction in cell viability.
The results are depicted in the table D2 below (TOX HELAM).

[5] = test system: E. coli tolC mutant; assay: Antimicrobial spectrum, CLSI broth microdilution MIC; type: cell-based, Escherichia coli; conditions: MHB
Experimental: (§4) Minimum Inhibitory Concentrations (MICs) were determined in accordance with the Clinical and Laboratory Standards Institute (CLSI) methodology against aerobic bacteria (CLSI M07-A8) (see Clinical and Laboratory Standards Institute. 2009. Methods for dilution antimicrobial susceptibility tests for bacteria that grow aerobically. CLSI document M07-A8, Vol. 29, No. 2.) by the broth microdilution method with cation-adjusted Mueller-Hinton broth (CA-MHB) medium for the majority of organisms, except for Haemophilus influenza, where Haemophilis test medium (HTM) broth was used. Descriptions of the individual organisms can be found in the table. Where possible, ATCC standard strains were tested.
(§5) The inoculum density for the susceptibility testing was standardized to give a final inoculum of approximately 5×10^5 CFU/mL.
(§6) Stock solutions of the compounds were prepared in DMSO at concentrations of 1 mg/mL. Linezolid was prepared in DMSO at a concentration of 2 mg/mL. Stock solutions of all compounds were diluted into CA-MHB to give a range of two-fold dilutions, depending upon the sensitivity of the organism being tested.

[6] = test system: E. coli ATCC 25922; assay: as above; type: cell-based, Escherichia coli; conditions: reference strain, MHB
Experimental: as §4, §5, §6

[7] = test system: S. aureus NRS120; assay: as above; type: cell-based, Staphylococcus aureus; conditions: LZD-R, MHB
Experimental: as §4, §5, §6

[8] = test system: S.aureus NRS121; assay: as above; type: cell-based, Staphylococcus aureus; conditions: LZD-R, MHB
Experimental: as §4, §5, §6

[9] = test system: S. aureus ATCC 29213; assay: as above; type: cell-based, Staphylococcus aureus; conditions: reference strain MSSA, MHB
Experimental: as §4, §5, §6

[10] = test system: S. aureus NRS119; assay: as above; type: cell-based, Staphylococcus aureus; conditions: LZD-R, MHB
Experimental: as §4, §5, §6

[11] = test system: S. aureus ATCC 43300; assay: as above; type: cell-based, Staphylococcus aureus; conditions: reference strain MRSA, MHB
Experimental: as §4, §5, §6

[12] = test system: H. influenza ATCC 49247; assay: as above; type: cell-based, Haemophilus influenzae; conditions: HTM broth
Experimental: as §4, §5, §6

[13] = test system: M. catarrhalis ATCC 8176; assay: as above; type: cell-based, Moraxella catarrhalis; conditions: b-lactamase negative, MHB
Experimental: as §4, §5, §6

[14] = In vivo pharmacokinetic and oral bioavailability; conditions: male Swiss mice
Experimental: The in vivo pharmacokinetics and oral bioavailability of the compound of the examples was/is investigated in male Swiss mice (fed) following single intravenous (i.v.) bolus and oral (p.o.) administration. For the i.v. and p.o. solution formulations, the compound was/is dissolved in a 20% HP-β-CD solution. The pH of the formulations was/is around pH 4. All i.v. formulations were isotonic.

SMILES: O=C1CCc2cc(/C=C/C(=O)N3CCC(Cc4ccccn4)CC3)cnc2N1 [compound 35]
- STA (361.159) IC90 [1]: 5.14 µg/mL
- FabI IC50 [2]: 0.48 µg/mL
- STA + 10% HS (361.169) IC90 [3]: 3.94 µg/mL
- TOX HELAM (222.125) CC50 [4]: >9.456 µg/mL

SMILES: O=C1CCc2cc(/C=C/C(=O)N3CCC(CC4CCCS4)CC3)cnc2N1 (stereo not shown) [compound 36]
- STA (361.159) IC90 [1]: 8.43 µg/mL
- FabI IC50 [2]: 0.61 µg/mL
- STA + 10% HS (361.169) IC90 [3]: 11.38 µg/mL
- TOX HELAM (222.125) CC50 [4]: >9.684 µg/mL

SMILES: O=C1CCc2cc(/C=C/C(=O)N3CCC(Cc4cccs4)CC3)cnc2N1 [compound 37]
- MIC90 [5]: >8 µg/mL
- MIC90 [6]: >8 µg/mL
- MIC90 [7]: 0.125 µg/mL (≈ 0.328 µM)
- MIC90 [8]: 0.125 µg/mL (≈ 0.328 µM)
- MIC90 [9]: 0.125 µg/mL (≈ 0.328 µM)
- MIC90 [10]: 0.125 µg/mL (≈ 0.328 µM)
- MIC90 [11]: 0.125 µg/mL (≈ 0.328 µM)
- STA (361.159) IC90 [1]: 0.30 µg/mL
- MIC90 [12]: >8 µg/mL
- FabI IC50 [2]: 0.50 µg/mL
- STA + 10% HS (361.169) IC90 [3]: 0.36 µg/mL
- MIC90 [13]: 1 µg/mL (≈ 2.62 µM)
- TOX HELAM (222.125) CC50 [4]: 19.12 µg/mL
- AUC0-inf ([14]; i.v., 2.5 mg/kg): 7464 ng·h/mL
- Half life (t1/2) ([14]; i.v., 2.5 mg/kg): 2.7 h
- Plasma clearance Cl ([14]; i.v., 2.5 mg/kg): 0.33 L/h/kg
- Vdz ([14]; i.v., 2.5 mg/kg): 1.3 L/kg
- C0 ([14]; i.v., 2.5 mg/kg, 20% HP-β-CD solution): 2929 ng/mL
- Oral bioavailability ([14]; p.o. 10 mg/kg vs i.v. 2.5 mg/kg): 72%
- AUC0-inf ([14]; p.o., 10 mg/kg): 21394 ng·h/mL
- Half life (t1/2) ([14]; p.o., 10 mg/kg): 3.2 h
- Tmax ([14]; p.o., 10 mg/kg): 2.0 h
- Cmax ([14]; p.o., 10 mg/kg, 20% HP-β-CD solution): 2950 ng/mL
